Assay results as given in PubChem BioAssay (NCI).
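Tested at 5 concentrations; 48 h exposure; 96-well plates; endpoints linearly interpolated, else capped at highest concentration. TGI denotes the concentration required for complete inhibition of growth.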

Assays:
Assay in all cases: NCI-60 cell line screen, 48 h
A498 renal = test system: A498 renal
CAKI-1 renal = test system: CAKI-1 renal
HT29 colon = test system: HT29 colon
IGROV1 ovarian = test system: IGROV1 ovarian
KM12 colon = test system: KM12 colon
MOLT-4 leukemia = test system: MOLT-4 leukemia
NCI-H23 lung = test system: NCI-H23 lung
OVCAR-4 ovarian = test system: OVCAR-4 ovarian
RPMI-8226 leukemia = test system: RPMI-8226 leukemia
SF-295 CNS = test system: SF-295 CNS
SF-539 CNS = test system: SF-539 CNS
SK-MEL-28 melanoma = test system: SK-MEL-28 melanoma
SK-OV-3 ovarian = test system: SK-OV-3 ovarian
U251 CNS = test system: U251 CNS
MDA-N = test system: MDA-N

Row | SMILES | TGI (A498 renal) | TGI (CAKI-1 renal) | TGI (HT29 colon) | TGI (IGROV1 ovarian) | TGI (KM12 colon) | TGI (MOLT-4 leukemia) | TGI (NCI-H23 lung) | TGI (OVCAR-4 ovarian) | TGI (RPMI-8226 leukemia) | TGI (SF-295 CNS) | TGI (SF-539 CNS) | TGI (SK-MEL-28 melanoma) | TGI (SK-OV-3 ovarian) | TGI (U251 CNS) | TGI (MDA-N)
1 | Nc1ncnc2c1ncn2[C@@H]1O[C@H](COC(c2ccccc2)(c2ccccc2)c2ccccc2)[C@@H](OC(=S)Oc2ccccc2)[C@@H]1F | 35.2 µM | 41.6 µM | 22.7 µM | 10.8 µM | 29.1 µM | 5.98 µM | 16 µM | 57.9 µM | > 100 µM | 31.1 µM | 20.9 µM | 33.5 µM | 30.8 µM | 21.8 µM | –
2 | CN1CCN(c2ccc3c(c2)NCC(=O)N3)CC1 | > 100 µM | > 100 µM | > 100 µM | > 100 µM | > 100 µM | > 100 µM | > 100 µM | > 100 µM | > 100 µM | > 100 µM | – | > 100 µM | > 100 µM | > 100 µM | –
3 | CCOC(=O)c1c[nH]c2ccc3c(c2c1=O)S(=O)(=O)CC3 (tested in a mixture with another compound) | > 100 µM | > 100 µM | > 100 µM | > 100 µM | > 100 µM | > 100 µM | > 100 µM | > 100 µM | > 100 µM | > 100 µM | > 100 µM | > 100 µM | > 100 µM | > 100 µM | –
4 | Cc1cnc2c(c1C)C(=O)c1ccccc1C2=O | > 100 µM | > 100 µM | > 100 µM | > 100 µM | > 100 µM | > 100 µM | > 100 µM | 59.3 µM | > 100 µM | > 100 µM | > 100 µM | > 100 µM | > 100 µM | > 100 µM | –
5 | CCCCCCCCCCCC[N+](CCCCCCCCCCCC)=C1SCCS1 | 29.4 µM | 26.1 µM | 12.8 µM | 23.4 µM | – | 16.6 µM | 9.05 µM | 11.3 µM | 4.4 µM | 11.6 µM | 25.5 µM | 22.9 µM | 30.1 µM | 13.7 µM | –
6 | O=C1CCCC/C1=C\c1ccc(Cl)c(Cl)c1 | > 100 µM | 37.6 µM | 55.1 µM | 61.7 µM | – | 43.8 µM | 71.3 µM | 41 µM | – | – | 32.5 µM | 37.7 µM | > 100 µM | 30.6 µM | –
7 | O=C1NC2CCCCCC2C12CCCCC2 (centres undefined) | > 100 µM | – | > 100 µM | > 100 µM | > 100 µM | > 100 µM | > 100 µM | > 100 µM | – | > 100 µM | > 100 µM | > 100 µM | > 100 µM | > 100 µM | –
8 | O=C1N[C@@H]2C(=C[C@H](O)[C@@H](O)[C@H]2O)c2cc3c(c(O)c21)OCO3 | 0.106 µM | 0.0735 µM | 0.172 µM | 0.151 µM | 0.405 µM | 0.296 µM | 0.129 µM | 0.537 µM | 0.0858 µM | 0.245 µM | 0.0486 µM | 0.0944 µM | 0.246 µM | 0.394 µM | –
9 | CN1CCN(P2(=S)Oc3ccc4ccccc4c3-c3c(ccc4ccccc34)O2)CC1 | > 100 µM | > 67.5 µM | 49.8 µM | > 100 µM | 51.1 µM | 46.2 µM | > 100 µM | > 100 µM | 43.1 µM | > 100 µM | 42.6 µM | > 100 µM | > 100 µM | > 100 µM | –
10 | CC1(C)CC(=O)c2c(nc3c4c([nH]c(-c5ccc(Br)cc5)c24)CC(C)(C)C3)C1 | 86.7 µM | > 100 µM | > 100 µM | – | > 100 µM | > 100 µM | > 100 µM | > 100 µM | – | > 100 µM | > 100 µM | > 100 µM | > 100 µM | > 100 µM | > 100 µM
11 | COC(=O)C(=O)Cc1nc2ccccc2o1 | > 100 µM | – | > 100 µM | – | > 100 µM | > 100 µM | > 100 µM | > 100 µM | – | – | > 100 µM | > 100 µM | > 100 µM | > 100 µM | –
12 | O=NN(CCF)C(=O)NC1CCSCC1 | > 100 µM | > 100 µM | > 100 µM | > 100 µM | > 100 µM | > 100 µM | > 100 µM | > 100 µM | > 100 µM | > 100 µM | > 100 µM | > 100 µM | > 100 µM | > 100 µM | –
13 | O=C(c1ccco1)N(C(=O)N1CCN(c2ccccc2)CC1)S(=O)(=O)c1ccccc1 | > 100 µM | 57.8 µM | > 100 µM | – | > 100 µM | 49.1 µM | 53.2 µM | > 100 µM | – | > 100 µM | 41.1 µM | > 100 µM | > 100 µM | 72.2 µM | 49.6 µM
14 | CCN(CCN(CC)C(=O)Nc1ccccc1)C(=O)Nc1ccccc1 | > 100 µM | – | > 100 µM | > 100 µM | – | > 100 µM | > 100 µM | – | > 100 µM | > 100 µM | – | > 100 µM | > 100 µM | > 100 µM | –
